Experimental data taken from ChEMBL document CHEMBL6092180 (Eur J Med Chem, 2024).
In brackets after ≈: the same amount, converted by molar mass. Activity calls are given as the source filed them. No cut-off for these calls is given here.

What was measured:
Candida albicans [1] = assay: Antifungal activity against Candida albicans SC5314 assessed as inhibition of fungal growth by CLSI M27-A3 guidelines based method; format: functional
Candida albicans [2] = assay: Antifungal activity against Candida albicans GIM 2.194 assessed as inhibition of fungal growth by CLSI M27-A3 guidelines based method; format: functional
Candida tropicalis = assay: Antifungal activity against Candida tropicalis GIM 2.183 assessed as inhibition of fungal growth by CLSI M27-A3 guidelines based method; format: functional
Candida parapsilosis = assay: Antifungal activity against Candida parapsilosis GIM 2.190 assessed as inhibition of fungal growth by CLSI M27-A3 guidelines based method; format: functional; conditions: Lodderomyces parapsilosis
Nakaseomyces glabratus = assay: Antifungal activity against Candida glabrata assessed as inhibition of fungal growth by CLSI M27-A3 guidelines based method; format: functional
Pichia kudriavzevii = assay: Antifungal activity against Candida krusei GIM 2.1 assessed as inhibition of fungal growth by CLSI M27-A3 guidelines based method; format: functional
Cryptococcus neoformans = assay: Antifungal activity against Cryptococcus neoformans CGMCC 2.3161 assessed as inhibition of fungal growth by CLSI M27-A3 guidelines based method; format: functional
[3] = Metabolic stability in human liver microsomes assessed as half-life preincubated for 10 mins followed by NADPH addition and measured after 60 mins by LC-MS/MS analysis; format: ADME, Microsome; conditions: time 70 min
[4] = Metabolic stability in human liver microsomes assessed as parent compound remaining preincubated for 10 mins followed by NADPH addition and measured after 60 mins by LC-MS/MS analysis; format: ADME, Microsome; conditions: time 70 min, read-out: Stability
Aspergillus fumigatus = assay: Antifungal activity against Aspergillus fumigatus cgmcc 3.7795 assessed as inhibition of fungal growth by CLSI M27-A3 guidelines based method; format: functional
Candida albicans [5] = assay: Antifungal activity against fluconazole-resistant Candida albicans CaR assessed as inhibition of fungal growth by CLSI M27-A3 guidelines based method; format: functional
Candida albicans [6] = assay: Antifungal activity against fluconazole and iodiconazole resistant Candida albicans clinical isolate 17# assessed as inhibition of fungal growth by CLSI M27-A3 guidelines based method; format: functional
Candida albicans [7] = assay: Antifungal activity against fluconazole-resistant Candida albicans clinical isolate 901 assessed as inhibition of fungal growth by CLSI M27-A3 guidelines based method; format: functional
Candida albicans [8] = assay: Antifungal activity against fluconazole-resistant Candida albicans clinical isolate 904 assessed as inhibition of fungal growth by CLSI M27-A3 guidelines based method; format: functional
Candida albicans [9] = assay: Antifungal activity against fluconazole-resistant Candida albicans clinical isolate 632 assessed as inhibition of fungal growth by CLSI M27-A3 guidelines based method; format: functional
Candida albicans [10] = assay: Antifungal activity against fluconazole-resistant Candida albicans clinical isolate 100 assessed as inhibition of fungal growth by CLSI M27-A3 guidelines based method; format: functional
Candida albicans [11] = assay: Antifungal activity against fluconazole-resistant Candida albicans clinical isolate 103 assessed as inhibition of fungal growth by CLSI M27-A3 guidelines based method; format: functional
Candida albicans [12] = assay: Antifungal activity against fluconazole-resistant Candida albicans clinical isolate 311 assessed as inhibition of fungal growth by CLSI M27-A3 guidelines based method; format: functional
Candida albicans [13] = assay: Fungicidal activity against Candida albicans SC5314 incubated for 48 hrs by PDA plate based method; format: functional
Candida albicans [14] = assay: Selectivity ratio of MFC for fungicidal activity against Candida albicans SC5314 to MIC80 for antifungal activity against Candida albicans SC5314; format: functional
Candida albicans [15] = assay: Fungicidal activity against fluconazole and iodiconazole resistant Candida albicans clinical isolate 17# incubated for 48 hrs by PDA plate based method; format: functional
Candida albicans [16] = assay: Fungicidal activity fluconazole and iodiconazole resistant Candida albicans clinical isolate 17# assessed as decrease in number of fungi at 8 times of MIC measured within 24 hrs by time-kill kinetics assay; format: functional, organism-based
Candida albicans [17] = assay: Antibiofilm activity against fluconazole-resistant Candida albicans CPCC400616 assessed as inhibition of metabolic activity of biofilm measured after 6 hrs by XTT reduction assay; format: functional
Candida albicans [18] = assay: Antibiofilm activity against fluconazole-resistant Candida albicans CPCC400616 assessed as inhibition of metabolic activity of biofilm measured after 24 hrs by XTT reduction assay; format: functional
[19] = Cytotoxicity against human NCI-H460 cells assessed as inhibition of cell growth incubated for 72 hrs by MTT assay; format: toxicity, cell-based
[20] = Cytotoxicity against human OVCAR-3 cells assessed as inhibition of cell growth incubated for 72 hrs by MTT assay; format: toxicity, cell-based
[21] = Cytotoxicity against HUVEC cells assessed as inhibition of cell growth incubated for 72 hrs by MTT assay; format: toxicity, cell-based; conditions: human
[22] = Cytotoxicity against HEK293T cells assessed as inhibition of cell growth incubated for 72 hrs by MTT assay; format: toxicity, cell-based, HEK-293T; conditions: human

Row | SMILES | MIC80 (Candida albicans [1]) [µg/mL] | MIC80 (Candida albicans [2]) [µg/mL] | MIC80 (Candida tropicalis) [µg/mL] | MIC80 (Candida parapsilosis) [µg/mL] | MIC80 (Nakaseomyces glabratus) [µg/mL] | MIC80 (Pichia kudriavzevii) [µg/mL] | MIC80 (Cryptococcus neoformans) [µg/mL] | half-life [3] [min] | remaining at 1 h [4] [%] | MIC80 (Aspergillus fumigatus) [µg/mL] | MIC80 (Candida albicans [5]) [µg/mL] | MIC80 (Candida albicans [6]) [µg/mL] | MIC80 (Candida albicans [7]) [µg/mL] | MIC80 (Candida albicans [8]) [µg/mL] | MIC80 (Candida albicans [9]) [µg/mL] | MIC80 (Candida albicans [10]) [µg/mL] | MIC80 (Candida albicans [11]) [µg/mL] | MIC80 (Candida albicans [12]) [µg/mL] | other results
1 | CN(Cc1ccc(C#Cc2ccccc2)cc1)CC(O)(Cn1cncn1)c1ccc(F)cc1F (stereo unspecified) | 0.013 (≈ 0.0284 µM) | 0.013 (≈ 0.0284 µM) | 0.013 (≈ 0.0284 µM) | 0.013 (≈ 0.0284 µM) | 0.1 (≈ 0.218 µM) | 0.05 (≈ 0.109 µM) | 0.025 (≈ 0.0545 µM) | 4.39 | 0.936 | – | – | – | – | – | – | – | – | – | –
2 | CN(Cc1ccc(I)cc1)CC(O)(Cn1cncn1)c1ccc(F)cc1F (stereo unspecified) | 0.013 (≈ 0.0268 µM) | 0.025 (≈ 0.0516 µM) | 0.013 (≈ 0.0268 µM) | 0.025 (≈ 0.0516 µM) | 0.2 (≈ 0.413 µM) | 0.2 (≈ 0.413 µM) | 0.1 (≈ 0.206 µM) | 20.4 | 13.1 | 0.25 (≈ 0.516 µM) | 2 (≈ 4.13 µM) | 0.25 (≈ 0.516 µM) | > 64 | 8 (≈ 16.5 µM) | 16 (≈ 33 µM) | 2 (≈ 4.13 µM) | 32 (≈ 66.1 µM) | > 64 | MFC (Candida albicans [13]): 32 µg/mL (≈ 66.1 µM); Selectivity ratio (Candida albicans [14]): >256; MFC (Candida albicans [15]): 32 µg/mL (≈ 66.1 µM); Activity (Candida albicans [16]): inactive; MIC50 (Candida albicans [17]): 8 µg/mL (≈ 16.5 µM); MIC50 (Candida albicans [18]): 16 µg/mL (≈ 33 µM); IC50 at 72 h [19]: > 10 µM; IC50 at 72 h [20]: > 10 µM; IC50 at 72 h [21]: > 10 µM; IC50 at 72 h [22]: > 10 µM
3 | Cc1ccc(C#Cc2ccc(CN(C)[C@H](C)[C@](O)(Cn3cncn3)c3ccc(F)cc3F)cc2)cc1 | 0.025 (≈ 0.0514 µM) | 0.013 (≈ 0.0267 µM) | 0.006 (≈ 0.0123 µM) | 0.006 (≈ 0.0123 µM) | 0.01 (≈ 0.0206 µM) | 0.03 (≈ 0.0617 µM) | 0.025 (≈ 0.0514 µM) | – | – | 0.1 (≈ 0.206 µM) | 0.25 (≈ 0.514 µM) | 0.5 (≈ 1.03 µM) | 8 (≈ 16.4 µM) | 32 (≈ 65.8 µM) | 4 (≈ 8.22 µM) | 8 (≈ 16.4 µM) | 16 (≈ 32.9 µM) | 32 (≈ 65.8 µM) | –
4 | C[C@@H](N(C)Cc1ccc(C#Cc2ccc(I)cc2)cc1)[C@](O)(Cn1cncn1)c1ccc(F)cc1F | 0.05 (≈ 0.0836 µM) | 0.05 (≈ 0.0836 µM) | 0.013 (≈ 0.0217 µM) | 0.013 (≈ 0.0217 µM) | 0.03 (≈ 0.0501 µM) | 0.05 (≈ 0.0836 µM) | 0.05 (≈ 0.0836 µM) | – | – | 0.2 (≈ 0.334 µM) | 16 (≈ 26.7 µM) | 16 (≈ 26.7 µM) | 16 (≈ 26.7 µM) | > 64 | 16 (≈ 26.7 µM) | 32 (≈ 53.5 µM) | 32 (≈ 53.5 µM) | > 64 | –
5 | C[C@@H](N(C)Cc1ccc(C#Cc2ccc(F)cc2)cc1)[C@](O)(Cn1cncn1)c1ccc(F)cc1F | 0.025 (≈ 0.051 µM) | 0.025 (≈ 0.051 µM) | 0.006 (≈ 0.0122 µM) | 0.006 (≈ 0.0122 µM) | 0.01 (≈ 0.0204 µM) | 0.03 (≈ 0.0612 µM) | 0.013 (≈ 0.0265 µM) | – | – | 0.1 (≈ 0.204 µM) | 0.25 (≈ 0.51 µM) | 0.25 (≈ 0.51 µM) | 4 (≈ 8.15 µM) | 16 (≈ 32.6 µM) | 4 (≈ 8.15 µM) | 4 (≈ 8.15 µM) | 8 (≈ 16.3 µM) | 16 (≈ 32.6 µM) | –
6 | C[C@@H](N(C)Cc1ccc(C#Cc2ccc(Br)cc2)cc1)[C@](O)(Cn1cncn1)c1ccc(F)cc1F | 0.025 (≈ 0.0453 µM) | 0.025 (≈ 0.0453 µM) | 0.006 (≈ 0.0109 µM) | 0.006 (≈ 0.0109 µM) | 0.05 (≈ 0.0907 µM) | 0.03 (≈ 0.0544 µM) | 0.025 (≈ 0.0453 µM) | – | – | 0.1 (≈ 0.181 µM) | 0.25 (≈ 0.453 µM) | 0.5 (≈ 0.907 µM) | 8 (≈ 14.5 µM) | 16 (≈ 29 µM) | 8 (≈ 14.5 µM) | 8 (≈ 14.5 µM) | 8 (≈ 14.5 µM) | > 64 | –
7 | CN(Cc1ccc(C#Cc2ccc(F)cc2F)cc1)CC(O)(Cn1cncn1)c1ccc(F)cc1F (stereo unspecified) | 0.006 (≈ 0.0121 µM) | 0.006 (≈ 0.0121 µM) | 0.006 (≈ 0.0121 µM) | 0.006 (≈ 0.0121 µM) | 0.01 (≈ 0.0202 µM) | 0.01 (≈ 0.0202 µM) | 0.013 (≈ 0.0263 µM) | 26.3 | 20.9 | – | – | – | – | – | – | – | – | – | –
8 | C[C@@H](N(C)Cc1ccc(C#Cc2ccc(Cl)cc2)cc1)[C@](O)(Cn1cncn1)c1ccc(F)cc1F | 0.025 (≈ 0.0493 µM) | 0.025 (≈ 0.0493 µM) | 0.006 (≈ 0.0118 µM) | 0.006 (≈ 0.0118 µM) | 0.03 (≈ 0.0592 µM) | 0.01 (≈ 0.0197 µM) | 0.025 (≈ 0.0493 µM) | – | – | 0.1 (≈ 0.197 µM) | 0.25 (≈ 0.493 µM) | 0.5 (≈ 0.986 µM) | 8 (≈ 15.8 µM) | 16 (≈ 31.6 µM) | 8 (≈ 15.8 µM) | 8 (≈ 15.8 µM) | 16 (≈ 31.6 µM) | 32 (≈ 63.1 µM) | –
